{"source": "patent US5162328A", "about": "“N-[3-[2-(1H-imidazol-1-yl)ethoxy]phenyl]-4-(2-thienyl)-2-pyrimidinamine and pharmacologically acceptable salts” (American Cyanamid Company, priority 1991, dated 1992)", "experiment": "Pharmacokinetics in dogs (plasma concentration by HPLC)", "type": "in vivo, dog (beagle)", "settings": "dog, plasma, po, 2 mg/kg/day, 2 mg/kg/day PO; for AUC(0-inf): read-out: AUCO- (to infinite time)", "description": "Since dogs are used in toxicology studies of antiasthma compounds, this species is chosen for pharmacokinetic evaluations. Use of the dog permits the pharmacokinetic comparison of 2 or more compounds in the same test animal, an evaluation which could not be conveniently performed in a smaller species. For each test compound, normal dogs are given a dose of 2.0 mg/kg/day for 5 consecutive days. There is a washout period of 1 month between the study of each of the test compounds in the same four dogs. Each test compound is administered as a solution of 5 mg/ml in either 0.05 or 0.1N HCl which is dispensed into a gelatin capsule immediately prior to dosage.\nHeparinized blood samples are obtained from each animal on the first, third and fifth day of dosage at 0.5, 1.0, 2.0, 4.0, 7.0, 12.0 and 24.0 hours after the dose. The samples are centrifuged immediately to obtain plasma which is frozen until analyzed.\nAnalysis of plasma is performed using High Performance Liquid Chromatography (HPLC). The analytical procedure is essentially identical for each compound. The internal standard used for N-[3-[2-(1H-imidazol-1-yl)ethoxy]phenyl]-4-(2-thienyl)2-pyrimidinamine is 2-chloro-11-(4-methyl-1-piperazinyl)dibenz[b,f][1,4]oxazepine succinate, while for 2-methyl-N^4 -[4-(4-pyridinyl)-2-pyrimidinyl]-1,4-benzenediamine dihydrochloride and N-[4-[2-(diethylamino)ethoxy]phenyl]-4-(4-pyridinyl)-2-pyrimidnamine dihydrochloride the internal standard is 7-ethoxy-coumarin. In a typical procedure, a 0.4 ml volume of acetonitrile containing internal standard is added a 0.2 ml volume of serum. The sample is mixed by vortexing and centrifuged. The clear protein free supernatent fluid is decanted into a clean tube and evaporated to dryness. The dry residue is dissolved in 0.2 ml of HPLC mobile phase and 50 ul of this solution injected. Peaks corresponding to the test compound being measured and to the internal standard compound are quantitated by their absorption of ultraviolet light at 280 nm. Each set of analytical samples is accompanied by the analysis of a group of standard dog plasma samples prepared to contain amounts of the compound being measured which encompasses the concentration range of the samples.\nFour normal beagle dogs weighing between 9.2 and 10.2 Kg are used in the study.", "note": "Where two headings read alike, the source gives them in different places.", "data": [{"smiles": "Cc1cc(Nc2nccc(-c3ccncc3)n2)ccc1N.Cl.Cl", "note": "[Compound 2, 2-methyl-N^4-[4-(4-pyridinyl)-2-pyrimidinyl]-1,4-benzenediamine dihydrochloride, reference compound]", "values": [{"measurement": "concentration at 0.5 h", "setting": "Dog 1, day 1, 0.5 h", "value": 512, "unit": "ng/mL"}, {"measurement": "concentration at 1 h", "setting": "Dog 1, day 1, 1 h", "value": 233, "unit": "ng/mL"}, {"measurement": "concentration at 2 h", "setting": "Dog 1, day 1, 2 h", "value": 55, "unit": "ng/mL"}, {"measurement": "concentration at 4 h", "setting": "Dog 1, day 1, 4 h", "value": "< 30", "unit": "ng/mL"}, {"measurement": "AUC(0-t)", "setting": "Dog 1, day 1", "value": 458, "unit": "ng·h/mL"}, {"measurement": "Cmax", "setting": "Dog 1, day 1", "value": 512, "unit": "ng/mL"}, {"measurement": "Tmax", "setting": "Dog 1, day 1", "value": 30, "unit": "min"}, {"measurement": "half-life", "setting": "Dog 1, day 1", "value": 28.2, "unit": "min"}, {"measurement": "AUC(0-inf)", "setting": "Dog 1, day 1", "value": 520, "unit": "ng·h/mL"}, {"measurement": "concentration at 0.5 h", "setting": "Dog 1, day 3, 0.5 h", "value": 375, "unit": "ng/mL"}, {"measurement": "concentration at 1 h", "setting": "Dog 1, day 3, 1 h", "value": 295, "unit": "ng/mL"}, {"measurement": "concentration at 2 h", "setting": "Dog 1, day 3, 2 h", "value": 122, "unit": "ng/mL"}, {"measurement": "concentration at 4 h", "setting": "Dog 1, day 3, 4 h", "value": "< 30", "unit": "ng/mL"}, {"measurement": "AUC(0-t)", "setting": "Dog 1, day 3", "value": 470, "unit": "ng·h/mL"}, {"measurement": "Cmax", "setting": "Dog 1, day 3", "value": 375, "unit": "ng/mL"}, {"measurement": "Tmax", "setting": "Dog 1, day 3", "value": 30, "unit": "min"}, {"measurement": "half-life", "setting": "Dog 1, day 3", "value": 54, "unit": "min"}, {"measurement": "AUC(0-inf)", "setting": "Dog 1, day 3", "value": 602, "unit": "ng·h/mL"}, {"measurement": "concentration at 0.5 h", "setting": "Dog 1, day 5, 0.5 h", "value": 120, "unit": "ng/mL"}, {"measurement": "concentration at 1 h", "setting": "Dog 1, day 5, 1 h", "value": 277, "unit": "ng/mL"}, {"measurement": "concentration at 2 h", "setting": "Dog 1, day 5, 2 h", "value": 50, "unit": "ng/mL"}, {"measurement": "concentration at 4 h", "setting": "Dog 1, day 5, 4 h", "value": "< 30", "unit": "ng/mL"}, {"measurement": "AUC(0-t)", "setting": "Dog 1, day 5", "value": 293, "unit": "ng·h/mL"}, {"measurement": "Cmax", "setting": "Dog 1, day 5", "value": 277, "unit": "ng/mL"}, {"measurement": "Tmax", "setting": "Dog 1, day 5", "value": 60, "unit": "min"}, {"measurement": "AUC(0-inf)", "setting": "Dog 1, day 5", "value": 349, "unit": "ng·h/mL"}, {"measurement": "concentration at 0.5 h", "setting": "Dog 2, day 1, 0.5 h", "value": 438, "unit": "ng/mL"}, {"measurement": "concentration at 1 h", "setting": "Dog 2, day 1, 1 h", "value": 210, "unit": "ng/mL"}, {"measurement": "concentration at 2 h", "setting": "Dog 2, day 1, 2 h", "value": 58, "unit": "ng/mL"}, {"measurement": "concentration at 4 h", "setting": "Dog 2, day 1, 4 h", "value": "< 30", "unit": "ng/mL"}, {"measurement": "AUC(0-t)", "setting": "Dog 2, day 1", "value": 406, "unit": "ng·h/mL"}, {"measurement": "Cmax", "setting": "Dog 2, day 1", "value": 438, "unit": "ng/mL"}, {"measurement": "Tmax", "setting": "Dog 2, day 1", "value": 30, "unit": "min"}, {"measurement": "half-life", "setting": "Dog 2, day 1", "value": 31.2, "unit": "min"}, {"measurement": "AUC(0-inf)", "setting": "Dog 2, day 1", "value": 471, "unit": "ng·h/mL"}, {"measurement": "concentration at 0.5 h", "setting": "Dog 2, day 3, 0.5 h", "value": 260, "unit": "ng/mL"}, {"measurement": "concentration at 1 h", "setting": "Dog 2, day 3, 1 h", "value": 78, "unit": "ng/mL"}, {"measurement": "concentration at 2 h", "setting": "Dog 2, day 3, 2 h", "value": "< 30", "unit": "ng/mL"}, {"measurement": "concentration at 4 h", "setting": "Dog 2, day 3, 4 h", "value": "< 30", "unit": "ng/mL"}, {"measurement": "AUC(0-t)", "setting": "Dog 2, day 3", "value": 293, "unit": "ng·h/mL"}, {"measurement": "Cmax", "setting": "Dog 2, day 3", "value": 260, "unit": "ng/mL"}, {"measurement": "Tmax", "setting": "Dog 2, day 3", "value": 30, "unit": "min"}, {"measurement": "AUC(0-inf)", "setting": "Dog 2, day 3", "value": 380, "unit": "ng·h/mL"}, {"measurement": "concentration at 0.5 h", "setting": "Dog 2, day 5, 0.5 h", "value": 350, "unit": "ng/mL"}, {"measurement": "concentration at 1 h", "setting": "Dog 2, day 5, 1 h", "value": 58, "unit": "ng/mL"}, {"measurement": "concentration at 2 h", "setting": "Dog 2, day 5, 2 h", "value": "< 30", "unit": "ng/mL"}, {"measurement": "concentration at 4 h", "setting": "Dog 2, day 5, 4 h", "value": "< 30", "unit": "ng/mL"}, {"measurement": "AUC(0-t)", "setting": "Dog 2, day 5", "value": 190, "unit": "ng·h/mL"}, {"measurement": "Cmax", "setting": "Dog 2, day 5", "value": 350, "unit": "ng/mL"}, {"measurement": "Tmax", "setting": "Dog 2, day 5", "value": 30, "unit": "min"}, {"measurement": "AUC(0-inf)", "setting": "Dog 2, day 5", "value": 255, "unit": "ng·h/mL"}, {"measurement": "concentration at 0.5 h", "setting": "Dog 3, day 1, 0.5 h", "value": 605, "unit": "ng/mL"}, {"measurement": "concentration at 1 h", "setting": "Dog 3, day 1, 1 h", "value": 234, "unit": "ng/mL"}, {"measurement": "concentration at 2 h", "setting": "Dog 3, day 1, 2 h", "value": 184, "unit": "ng/mL"}, {"measurement": "concentration at 4 h", "setting": "Dog 3, day 1, 4 h", "value": "< 30", "unit": "ng/mL"}, {"measurement": "AUC(0-t)", "setting": "Dog 3, day 1", "value": 570, "unit": "ng·h/mL"}, {"measurement": "Cmax", "setting": "Dog 3, day 1", "value": 605, "unit": "ng/mL"}, {"measurement": "Tmax", "setting": "Dog 3, day 1", "value": 30, "unit": "min"}, {"measurement": "half-life", "setting": "Dog 3, day 1", "value": 58.2, "unit": "min"}, {"measurement": "AUC(0-inf)", "setting": "Dog 3, day 1", "value": 776, "unit": "ng·h/mL"}, {"measurement": "concentration at 0.5 h", "setting": "Dog 3, day 3, 0.5 h", "value": 387, "unit": "ng/mL"}, {"measurement": "concentration at 1 h", "setting": "Dog 3, day 3, 1 h", "value": 284, "unit": "ng/mL"}, {"measurement": "concentration at 2 h", "setting": "Dog 3, day 3, 2 h", "value": 141, "unit": "ng/mL"}, {"measurement": "concentration at 4 h", "setting": "Dog 3, day 3, 4 h", "value": "< 30", "unit": "ng/mL"}]}]}
